Measured values as given in publication PMC3237634 (Bioorganic & medicinal chemistry letters, 2011).
Where two headings read alike, the source gives them in different places.

What was measured:
hPEPT1 [1] = target: T1, hPEPT1 (Homo sapiens, UniProt P46059); format: cell-based; settings: for affinity for hPEPT1 compared to the lead promoiety H-Phe-Ser-Ala-OH: statistical comparison, N = 3
T1 sequence (P46059 1-708): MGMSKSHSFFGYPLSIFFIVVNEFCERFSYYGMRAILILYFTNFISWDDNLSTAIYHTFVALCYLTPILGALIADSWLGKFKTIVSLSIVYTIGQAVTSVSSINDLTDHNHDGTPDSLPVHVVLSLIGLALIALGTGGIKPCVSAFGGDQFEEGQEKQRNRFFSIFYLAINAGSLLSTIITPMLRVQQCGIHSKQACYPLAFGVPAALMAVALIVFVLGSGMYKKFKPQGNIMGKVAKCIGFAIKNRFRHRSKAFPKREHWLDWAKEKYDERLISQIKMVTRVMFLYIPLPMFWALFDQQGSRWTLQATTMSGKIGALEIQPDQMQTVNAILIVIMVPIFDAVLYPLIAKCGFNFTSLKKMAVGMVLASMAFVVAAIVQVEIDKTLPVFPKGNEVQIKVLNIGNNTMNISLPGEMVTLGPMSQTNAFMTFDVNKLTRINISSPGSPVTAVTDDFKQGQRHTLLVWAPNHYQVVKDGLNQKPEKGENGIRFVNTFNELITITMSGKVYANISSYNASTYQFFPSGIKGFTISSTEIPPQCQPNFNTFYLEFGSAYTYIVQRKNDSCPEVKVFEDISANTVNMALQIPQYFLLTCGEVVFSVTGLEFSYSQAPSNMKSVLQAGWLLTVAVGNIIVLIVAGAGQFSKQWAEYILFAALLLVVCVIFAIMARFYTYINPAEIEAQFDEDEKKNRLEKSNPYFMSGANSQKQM

hPEPT1 [2] = target: T1, hPEPT1; settings: investigation of 55 tripeptides; cited from earlier work
hPEPT1 [3] = target: T1, hPEPT1; settings: value obtained by refitting data presented in Thorn et al.; cited from earlier work

Compound	affinity for hPEPT1 compared to the lead promoiety H-Phe-Ser-Ala-OH (hPEPT1 [1])	interaction with hPEPT1 in translocation study (hPEPT1 [2])	also measured
C[C@H](NC(=O)[C@H](COC(=O)c1ccccc1)CC(=O)[C@@H](N)Cc1ccccc1)C(=O)O.O=C(O)C(F)(F)F [Compound 14A, H-Phe-ψ[COCH2]Ser(Bz)-Ala-OH]	did not have significantly different affinities		
Asp-Ile-Arg		not recognized by hPEPT1	
H-Phe-Ser-Ala-OH			Ki (hPEPT1 [3]): 260 µM
N[C@@H](Cc1ccccc1)C(=O)C[C@@H](COC(=O)c1ccccc1)C(=O)N[C@H](C(=O)O)C1CCCCC1.O=C(O)C(F)(F)F [Compound 14C, H-Phe-ψ[COCH2]Ser(Bz)-Chg-OH]	significantly higher affinity		Ki (hPEPT1 [1]): 50 µM
Met-Pro-Pro		inhibitor	
CCC[C@H](NC(=O)[C@H](COC(=O)c1ccccc1)CC(=O)[C@@H](N)Cc1ccccc1)C(=O)O.O=C(O)C(F)(F)F [Compound 14B, H-Phe-ψ[COCH2]Ser(Bz)-Nva-OH]	did not have significantly different affinities		
